Measured values taken from patent US20260144788A1, “COMPOUND FOR SHP2 PROTEIN DEGRADATION AND MEDICAL USES THEREOF” (UBIX THERAPEUTICS, INC., priority 2022, published 2026).

Target: T1, SHP2 protein (Homo sapiens, UniProt Q06124)
T1 sequence (Q06124 1-593): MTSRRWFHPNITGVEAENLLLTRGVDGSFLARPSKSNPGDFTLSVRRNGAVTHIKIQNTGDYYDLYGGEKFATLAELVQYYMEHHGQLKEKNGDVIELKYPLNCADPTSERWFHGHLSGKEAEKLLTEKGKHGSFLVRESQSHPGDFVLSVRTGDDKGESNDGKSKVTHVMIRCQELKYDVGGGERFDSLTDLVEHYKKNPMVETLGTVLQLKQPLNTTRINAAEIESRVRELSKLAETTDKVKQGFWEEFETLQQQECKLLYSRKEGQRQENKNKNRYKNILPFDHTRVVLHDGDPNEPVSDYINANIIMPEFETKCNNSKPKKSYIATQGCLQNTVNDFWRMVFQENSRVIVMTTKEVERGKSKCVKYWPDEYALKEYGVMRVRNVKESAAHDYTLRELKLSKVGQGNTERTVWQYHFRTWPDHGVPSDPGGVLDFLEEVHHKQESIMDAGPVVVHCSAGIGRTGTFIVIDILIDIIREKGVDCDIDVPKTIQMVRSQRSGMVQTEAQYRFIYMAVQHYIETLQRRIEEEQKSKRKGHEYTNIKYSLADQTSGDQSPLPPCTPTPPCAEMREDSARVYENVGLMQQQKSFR
Experiment: Measurement of SHP2 protein degradation in NCI-H358 cells (western blotting)
Type: cell-based
Design: endogenous in cells; host or cells: NCI-H358
Conditions: harvested after 24 hours
Summary of the method: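 H358 cells in RPMI1640/25 mM HEPES/10% FBS, cultured 24 h, then exposed to compound at final 0.001, 0.01 and 0.1 μM for 24 h against a DMSO control. Lysates were normalised for protein by BCA and probed by western blot for SHP2, with GAPDH as loading control.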

SHP2% degradation (0.01 μM) [%] | SHP2% degradation (0.1 μM) [%] | SMILES
91.0 | 100.0 | CC(=O)N[C@H](C(=O)N1C[C@H](O)C[C@H]1C(=O)NCc1ccc(-c2scnc2C)cc1O[C@H]1CC[C@H](C(=O)N2CCC(N3CCOc4c(Sc5cnc(N6CCC7(CC6)CO[C@@H](C)[C@H]7N)cn5)cccc43)CC2)CC1)C(C)(C)C [Example 36, (2S,4R)-1-((S)-2-acetamido-3,3-dimethylbutanoyl)-N-(2-(((1R,4S)-4-(4-(8-((5-((3S,4S)-4-amino-3-methyl-2-oxa-8-azaspiro[4.5]decan-8-yl)pyrazin-2-yl)thio)-2H-benzo[b][1,4]oxazin-4(3H)-yl)piperidine-1-carbonyl)cyclohexyl)oxy)-4-(4-methylthiazol-5-yl)benzyl)-4-hydroxypyrrolidine-2-carboxamide]
53.2 | 98.5 | CC(=O)N[C@H](C(=O)N1C[C@H](O)C[C@H]1C(=O)NCc1ccc(-c2scnc2C)cc1OC1CCN(C(=O)C2CCN(c3nccc(Sc4cnc(N5CCC(C)(CN)CC5)cn4)c3Cl)CC2)CC1)C1CC1 [Example 91, (2S,4R)-1-((S)-2-acetamido-2-cyclopropylacetyl)-N-(2-((1-(1-(4-((5-(4-(aminomethyl)-4-methylpiperidin-1-yl)pyrazin-2-yl)thio)-3-chloropyridin-2-yl)piperidine-4-carbonyl)piperidin-4-yl)oxy)-4-(4-methylthiazol-5-yl)benzyl)-4-hydroxypyrrolidine-2-carboxamide]
94.3 | 95.9 | CC(=O)N[C@H](C(=O)N1C[C@H](O)C[C@H]1C(=O)NCc1ccc(-c2scnc2C)cc1O[C@H]1CC[C@H](C(=O)N2CCC(Nc3nccc(Sc4cnc(N5CCC6(CC5)CO[C@@H](C)[C@H]6N)cn4)c3Cl)CC2)CC1)C(C)(C)C [Example 43, (2S,4R)-1-((S)-2-acetamido-3,3-dimethylbutanoyl)-N-(2-(((1R,4S)-4-(4-((4-((5-((3S,4S)-4-amino-3-methyl-2-oxa-8-azaspiro[4.5]decan-8-yl)pyrazin-2-yl)thio)-3-chloropyridin-2-yl)amino)piperidine-1-carbonyl)cyclohexyl)oxy)-4-(4-methylthiazol-5-yl)benzyl)-4-hydroxypyrrolidine-2-carboxamide]
99.8 | 99.8 | Cc1cn([C@H](C(=O)N2C[C@H](O)C[C@H]2C(=O)NCc2ccc(-c3scnc3C)cc2OC2CCN(C(=O)C3CCN(c4nccc(Sc5cnc(N6CCC7(CC6)CO[C@@H](C)[C@H]7N)c(CO)n5)c4Cl)CC3)CC2)C(C)C)nn1 [Example 110, (2S,4R)—N-(2-((1-(1-(4-((5-((3S,4S)-4-amino-3-methyl-2-oxa-8-azaspiro[4.5]decan-8-yl)-6-(hydroxymethyl)pyrazin-2-yl)thio)-3-chloropyridin-2-yl)piperidine-4-carbonyl)piperidin-4-yl)oxy)-4-(4-methylthiazol-5-yl)benzyl)-4-hydroxy-1-((S)-3-methyl-2-(4-methyl-1H-1,2,3-triazol-1-yl)butanoyl)pyrrolidine-2-carboxamide]
98.0 | 99.9 | Cc1cn([C@H](C(=O)N2C[C@H](O)C[C@H]2C(=O)NCc2ccccc2OC2CCN(C(=O)C3CCN(c4nccc(Sc5cnc(N6CCC7(CC6)CO[C@@H](C)[C@H]7N)c(CO)n5)c4Cl)CC3)CC2)C(C)C)nn1 [Example 111, (2S,4R)—N-(2-((1-(1-(4-((5-((3S,4S)-4-amino-3-methyl-2-oxa-8-azaspiro[4.5]decan-8-yl)-6-(hydroxymethyl)pyrazin-2-yl)thio)-3-chloropyridin-2-yl)piperidine-4-carbonyl)piperidin-4-yl)oxy)benzyl)-4-hydroxy-1-((S)-3-methyl-2-(4-methyl-1H-1,2,3-triazol-1-yl)butanoyl)pyrrolidine-2-carboxamide]
66.8 | 97.7 | CC(=O)N[C@H](C(=O)N1C[C@H](O)C[C@H]1C(=O)NCc1ccc(-c2scnc2C)cc1O[C@H]1CC[C@H](C(=O)N2CCC(N3CCOc4c(Sc5cnc(N6CCC(C)(CN)CC6)cn5)cccc43)CC2)CC1)C(C)(C)C [Example 35, (2S,4R)-1-((S)-2-acetamido-3,3-dimethylbutanoyl)-N-(2-(((1r,4S)-4-(4-(8-((5-(4-(aminomethyl)-4-methylpiperidin-1-yl)pyrazin-2-yl)thio)-2,3-dihydro-4H-benzo[b][1,4]oxazin-4-yl)piperidine-1-carbonyl)cyclohexyl)oxy)-4-(4-methylthiazol-5-yl)benzyl)-4-hydroxypyrrolidine-2-carboxamide]

The next lines start with the molecule.

SMILES | SHP2% degradation (0.01 μM) [%] | SHP2% degradation (0.1 μM) [%]
CC(=O)N[C@H](C(=O)N1C[C@H](O)C[C@H]1C(=O)NCc1ccc(-c2scnc2C)cc1OC1CCN(C(=O)C2CCN(c3nccc(Sc4nc(CO)c(N5CCC(C)(CN)CC5)nc4C)c3Cl)CC2)CC1)C(C)(C)C [Example 81, (2S,4R)-1-((S)-2-acetamido-3,3-dimethylbutanoyl)-N-(2-((1-(1-(4-((5-(4-(aminomethyl)-4-methylpiperidin-1-yl)-6-(hydroxymethyl)-3-methylpyrazin-2-yl)thio)-3-chloropyridin-2-yl)piperidine-4-carbonyl)piperidin-4-yl)oxy)-4-(4-methylthiazol-5-yl)benzyl)-4-hydroxypyrrolidine-2-carboxamide] | 85.6 | 99.6
Cc1ncsc1-c1ccc(CNC(=O)[C@@H]2C[C@@H](O)CN2C(=O)[C@@H](NC(=O)C2(F)CC2)C(C)(C)C)c(OC2CCN(CC3(O)CCN(c4nccc(Sc5cnc(N6CCC(C)(CN)CC6)cn5)c4Cl)CC3)CC2)c1 [Example 10, (2S,4R)—N-(2-((1-((1-(4-((5-(4-(aminomethyl)-4-methylpiperidin-1-yl)pyrazin-2-yl)thio)-3-chloropyridin-2-yl)-4-hydroxypiperidin-4-yl)methyl)piperidin-4-yl)oxy)-4-(4-methylthiazol-5-yl)benzyl)-1-((S)-2-(1-fluorocyclopropane-1-carboxamido)-3,3-dimethylbutanoyl)-4-hydroxypyrrolidine-2-carboxamide] | −8.0 | 93.9
CC(=O)N[C@H](C(=O)N1C[C@H](O)C[C@H]1C(=O)NCc1ccc(-c2scnc2C)cc1O[C@H]1CC[C@H](C(=O)N2CC(N3CCOc4c(Sc5cnc(N6CCC(C)(CN)CC6)cn5)cccc43)C2)CC1)C(C)(C)C [Example 34, (2S,4R)-1-((S)-2-acetamido-3,3-dimethylbutanoyl)-N-(2-(((1R,4S)-4-(3-(8-((5-(4-(aminomethyl)-4-methylpiperidin-1-yl)pyrazin-2-yl)thio)-2,3-dihydro-4H-benzo[b][1,4]oxazin-4-yl)azetidine-1-carbonyl)cyclohexyl)oxy)-4-(4-methylthiazol-5-yl)benzyl)-4-hydroxypyrrolidine-2-carboxamide] | −36.9 | 73.0
Cc1ncsc1-c1ccc(CNC(=O)[C@@H]2C[C@@H](O)CN2C(=O)[C@@H](NC(=O)C2(F)CC2)C(C)(C)C)c(O[C@H]2CC[C@H](C(=O)N3CC(Nc4cccc(Sc5cnc(N6CCC7(CC6)Cc6ncccc6[C@H]7N)cn5)c4Cl)C3)CC2)c1 [Example 15, (2S,4R)—N-(2-(((1R,4S)-4-(3-((3-((5-((S)-5-amino-5,7-dihydrospiro[cyclopenta[b]pyridine-6,4′-piperidin]-1′-yl)pyrazin-2-yl)thio)-2-chlorophenyl)amino)azetidine-1-carbonyl)cyclohexyl)oxy)-4-(4-methylthiazol-5-yl)benzyl)-1-((S)-2-(1-fluorocyclopropane-1-carboxamido)-3,3-dimethylbutanoyl)-4-hydroxypyrrolidine-2-carboxamide] | 93.5 | 99.6
Cc1ncsc1-c1ccc(CNC(=O)[C@@H]2C[C@@H](O)CN2C(=O)[C@@H](n2cc(C3CC3)nn2)C(C)(C)C)c(OC2CCN(C(=O)C3CCN(c4nccc(Sc5cnc(N6CCC(C)(CN)CC6)cn5)c4Cl)CC3)CC2)c1 [Example 107, (2S,4R)—N-(2-((1-(1-(4-((5-(4-(aminomethyl)-4-methylpiperidin-1-yl)pyrazin-2-yl)thio)-3-chloropyridin-2-yl)piperidine-4-carbonyl)piperidin-4-yl)oxy)-4-(4-methylthiazol-5-yl)benzyl)-1-((S)-2-(4-cyclopropyl-1H-1,2,3-triazol-1-yl)-3,3-dimethylbutanoyl)-4-hydroxypyrrolidine-2-carboxamide] | 96.5 | 99.2
Cc1ncsc1-c1ccc(CNC(=O)[C@@H]2C[C@@H](O)CN2C(=O)[C@@H](NC(=O)CO)C(C)(C)C)c(OC2CCN(C(=O)C3CCN(c4nccc(Sc5cnc(N6CCC7(CC6)CO[C@@H](C)[C@H]7N)c(CO)n5)c4Cl)CC3)CC2)c1 [Example 89, (2S,4R)—N-(2-((1-(1-(4-((5-((3S,4S)-4-amino-3-methyl-2-oxa-8-azaspiro[4.5]decan-8-yl)-6-(hydroxymethyl)pyrazin-2-yl)thio)-3-chloropyridin-2-yl)piperidine-4-carbonyl)piperidin-4-yl)oxy)-4-(4-methylthiazol-5-yl)benzyl)-4-hydroxy-1-((S)-2-(2-hydroxyacetamido)-3,3-dimethylbutanoyl)pyrrolidine-2-carboxamide] | 98.8 | 99.9
